Results on 2 molecules are retold here after patent publication US4122077A, “Somatostatin analogs” (American Home Products Corporation, priority 1977, dated 1978).

Where a SMILES comes first, the peptide text is derived from it. Bridges are numbered along the chain shown (N, C = ends). [ ]: non-standard residue; d: D form.

One assay deals with growth hormone (GH). Kind of assay: Suppression of growth hormone (duration of activity after sc injection). In kind it is in vivo, rats. The following applies: 1000 μg/kg. sc, rats. How it is done: A subcutaneous (sc) injection of peptide solubilized or suspended in physiological saline, is given to Charles River CD® nonfasted male rats. Matched saline control solution sc injected rats serve as control animals so that every experimental rat is paired with a control rat. The rats are kept in separate cages and 20 minutes before the end of the test time period they are given an intraperitoneal (i.p.) injection of Nembutal® at a dose of 50 mg/kg. Blood samples are obtained by cardiac puncture and the plasma separated for the radioimmunoassay of growth hormone (GH) concentration (ng/ml.). Time periods after injection of 2, 4, 5, and 6 hours are generally used to test the duration of the activity of the peptide to suppress circulating peripheral GH levels. Comparisons between control and experimental GH values at each time are evaluated by the Student "t" test and statistical significance (p) at the 0.05 level or lower is used as the index of activity.

A further assay relates to growth hormone. Kind of assay: Suppression of growth hormone, glucagon and insulin (arginine-stimulated, nembutal rats): GH. It counts as in vivo. The following applies: arginine challenge (table 5). How it is done: (§1) Albino male rats are arranged in three groups (nine rats/group) and injected i.p. with nembutal at 50mg/kg. 15 minutes after the nembutal injection they are injected s.c. according to group with (a) test compound, typically 10-2000 μg/kg.; (b) SRIF 200 μg/kg.; or (c) physiological saline. 10 minutes later 0.5 ml. of arginine (300 mg/ml., pH 7.2) is injected into the heart. The rats are decapitated 5 minutes after receiving the arginine, and the blood is collected into Trasylol-EDTA. Appropriate aliquots are then assayed for growth hormone, glucagon and insulin. […] Comparisons between control and experimental values are statistically evaluated by the analysis of variants method and statistical significance (p) at 0.05 or lower is used as the index of activity.

The test system of a further assay is insulin. Nature of the assay: Suppression of growth hormone, glucagon and insulin (arginine-stimulated, nembutal rats): insulin. It counts as in vivo. The following applies: arginine challenge. How it is done:
as §1

The test system of a further assay is glucagon. Kind of assay: Suppression of growth hormone, glucagon and insulin (arginine-stimulated, nembutal rats): glucagon. In kind it is in vivo. The following applies: arginine challenge. How it is done:
as §1

With `C[C@@H](O)[C@@H]1NC(=O)[C@H](CCCCN)NC(=O)[C@@H](Cc2c[nH]c3ccccc23)NC(=O)[C@H](Cc2ccccc2)NC(=O)[C@H](Cc2ccccc2)NC(=O)[C@@H](Cc2c[nH]c3ccccc23)NC(=O)[C@@H](Cc2ccc(O)cc2)NC(=O)[C@@H](N)CSSC[C@H](C(=O)O)NC(=O)[C@H](CO)NC(=O)[C@H]([C@@H](C)O)NC(=O)[C@H](Cc2ccccc2)NC1=O` [Compound I, L-Cysteinyl-D-Tyrosyl-D-Tryptophyl-L-Phenylalanyl-L-Phenylalanyl-D-Tryptophyl-L-Lysyl-L-Threonyl-L-Phenylalanyl-L-Threonyl-L-Seryl-D-Cysteine Cyclic (1-12)-Disulfide] (H-C[dY][dW]FF[dW]KTFTS[dC]-OH; disulfide 1-12), in the assay with growth hormone (GH), the “GH, 2 Hours” value turned out to be 49 ± 5 ng/mL and the “GH, 4 Hours” value worked out at 86 ± 11 ng/mL. In the assay on growth hormone (200 μg/kg. s.c.), this molecule registered a GH of 57 ± 14. In the assay on insulin (200 μg/kg. s.c.), this molecule had an Insulin of 236 ± 27 μU/ml. Moreover, the Glucagon with glucagon (200 μg/kg. s.c.) came out at 13 ± 2 pg/mL.

With `CC(C)C[C@H]1NC(=O)[C@@H](N)CSSC[C@@H](C(=O)O)NC(=O)[C@H](CO)NC(=O)[C@H]([C@@H](C)O)NC(=O)[C@H](Cc2ccccc2)NC(=O)[C@H]([C@@H](C)O)NC(=O)[C@H](CCCCN)NC(=O)[C@@H](Cc2c[nH]c3ccccc23)NC(=O)[C@H](Cc2ccccc2)NC(=O)[C@H](Cc2ccccc2)NC(=O)[C@@H](Cc2ccc(O)cc2)NC1=O` [G, L-Cysteinyl-D-Leucyl-D-Tyrosyl-L-Phenylalanyl-L-Phenylalanyl-D-Trypotophyl-L-Lysyl-L-Threonyl-L-Phenylalanyl-L-Threonyl-L-Seryl-L-Cysteine Cyclic (1-12)-Disulfide] (H-C[dL][dY]FF[dW]KTFTSC-OH; disulfide 1-12), in the assay on growth hormone (GH), the “GH, 2 Hours” value was 84 ± 11 ng/mL and the “GH, 4 Hours” value amounted to 94 ± 23 ng/mL. In addition, the “GH, 5 Hours” value in the assay with growth hormone (GH) (5 hours) was determined as 93 ± 30 ng/mL. Besides, the “GH, 6 Hours” value in the assay on growth hormone (GH) (6 hours) turned out to be 72 ± 68 ng/mL. Further, in the assay on growth hormone (100 μg/kg. s.c.), the GH is listed as 29 ± 16. In addition, the Insulin in the assay on insulin (100 μg/kg. s.c.) is listed as 218 ± 44 μU/ml. The same molecule gave a Glucagon in the assay with glucagon (100 μg/kg. s.c.) of 28 ± 16 pg/mL.
